Legend:
[1] = system: Gram positive bacteria (three Staphylococcus aureus strains); assay: Biofilm formation in polystyrene microtiter plates (crystal violet, OD595), Gram positive bacteria; format: cell-based; conditions: one day at 37 °C
Procedure: All experiments were performed by using sterile 96-wells polystyrene microtiter plates (Nunc, Nuncleon, Roskilde, Denmark) under conditions promoting biofilm formation by the different bacterial genera. The Inhibio compound preparations of the invention; 1,3-cyclohexanedione, 1,4-cyclohexanedione, cyclopentanone, 5-ethylcyclohexane-1,3-dione and 5-methyl-1,3 cyclohexanedione 98% were solved directly in Tryptic Soy Broth (TSB) 1+1 or Liquid Microbiology Broth (LB) broth without NaCl (LB^wo/NaCl) to obtain the test concentrations, i.e. from 1 mg/ml to 10 mg/ml.
Three Staphylococcus aureus strains of animal origin were used in this study. All strains were stored at −80° C. in Brain Heart Infusion Broth (BHI) (Difco, BD, Franklin Lakes, N.J., USA) supplemented with 15% glycerine (Merck KGaA, Darmstadt, Germany) and were recovered on blood agar at 37.0±1.0° C. The bacterial cultures were then transferred into TSB and were incubated statically overnight at 37.0±1.0° C. to obtain an overnight working culture. A total of 2 μl of this suspension was transferred to each 96 wells of polystyrene microtiter plates (Nunc, Nuncleon, Roskilde, Denmark) containing 198 μl TSB 1+1 with dissolved Inhibio compounds in the following concentrations: 0 mg/ml, 1 mg/ml and 10 mg/ml for 1,3-cyclohexanedione; 0 mg/ml and 10 mg/ml for 1,4-cyclohexanedione; and 0 mg/ml, 1 mg/ml, 2 mg/ml and 10 mg/ml for 5-ethylcyclohexane-1,3-dione and 5-Methyl-1,3-cyclohexanedione in the total amount of broth. Three parallels of each strain were used and the microtiter plates were incubated statically for one day, at 37±1.0° C. After incubation, OD595 was measured in a microplate photometer (Multiscan EX; Thermo Fisher Scientific Inc, Waltham, Mass., USA) before the plates were gently washed three times with 290 μl tap water. The plates were dried in room temperature before addition of 220 μl 1% crystal violet (Sigma-Aldrich, St. Louis, Mo., USA). After 30 minutes incubation in room temperature, the plates were washed three times with tap water before the addition of 220 μl ethanol:acetone (70:30 w:w) to dissolve the bound dye. The plates were incubated for 10 minutes in room temperature before OD595 was measured after the bound dye was dissolved using ethanol:acetone. For each strain, the result was calculated by subtracting the median OD595 of the three parallels of the control (test broth only) from the median OD595 of the three parallels of sample. Further, the average result of all three Gram positive strains included in the study were calculated. Three independent experiments were performed and the average was evaluated.

Salmonella (one strain) = assay: Effect of increased temperature on 1,3-cyclohexanedione: biofilm formation after heating the solution; format: cell-based; conditions: 72 hours at 20 °C
Procedure: The experiment was performed using 1,3-cyclohexanedione at a concentration of 1 mg/ml. One strain of Salmonella was used in this study. All strains were stored at −80° C. in BHI (Difco, BD, Franklin Lakes, N.J., USA) supplemented […] with 15% glycerine (Merck KGaA, Darmstadt, Germany) and were recovered on blood agar at 37.0±1.0° C. The bacterial culture was transferred into LB broth and was incubated statically overnight at 37.0±1.0° C. to obtain an overnight working culture. 1,3-cyclohexanedione was diluted in LB wo/NaCl at a concentration of 1 mg/ml and divided into 4 tubes. The tubes were heated, for two minutes, to 80° C., 90° C., 100° C. and the last tube was not heated and included as a control. 100 μl from each tube was added to a sterile 96-wells polystyrene microtiter plates (Nunc, Nuncleon, Roskilde, Denmark) together with 30 μl bacterial culture or 30 μl LB^wo/NaCl in the case of the blank controls. The plates were incubated for 72 hours at 20° C. The plate was emptied and washed twice using 200 μl tap water in each well each time. This was followed by the addition of 140 μl 1% Crystal violet to each well and, after 30 minutes, the plate was again emptied and washed 3 times using 200 μl tap water. 140 μl etanol:acetone 70:30 was added and OD595 was measured after 10 minutes. For each strain, the result was calculated by subtracting the median OD595 of the three parallels of the control (test broth only) from the median OD595 of the three parallels of sample. At least two experiments were performed and the average was estimated.

[2] = NMR of cyclohexane-1,3-dione in aqueous solution (keto-enol tautomerism); format: physicochemical; conditions: NMR-data
Text: In one embodiment, the compounds of the composition are able to undergo keto-enol tautomerism. Particularly 1,3-cyclodions, such as 1,3-cyclohexanediones, particularly such diones wherein neither or maximum one substituents are present in the C-2 position, have been found favourable as they can undergo keto-enol tautomerism. NMR-data of cyclohexane-1,3-dione support that in aqueous solution this compound exists in a highly enolised form where electrons are delocalised between the C-1-oxygen/C-1, C-2 and C-3/C-3-oxygen thereby rendering the C-2 methylene protons relatively acidic. […] It is believed that the acidity of the C-2 protons affect the solubility of the compound, providing a higher solubility than e.g. similar 1,4-carbocyclic compounds.

O=C1CCCC(=O)C1 [1,3-cyclohexanedione]
decrease in biofilm formation, percentage of the control ([1]; 1 mg/ml): 74%
decrease in biofilm formation, percentage of the control ([1]; 10 mg/ml): 98%
decrease in biofilm formation compared to the control (Salmonella (one strain); 1 mg/ml solution heated to 80 °C for two minutes): 38%
decrease in biofilm formation compared to the control (Salmonella (one strain); 1 mg/ml solution heated to 90 °C for two minutes): 40%
decrease in biofilm formation compared to the control (Salmonella (one strain); 1 mg/ml solution heated to 100 °C for two minutes): 28%
decrease in biofilm formation compared to the control (Salmonella (one strain); 1 mg/ml unheated solution): 46%
stability of tautomers [2]: stable at least over one day
